Measurements from patent US20120035187A1 (priority 2009, published 2012).
Where two headings read alike, the source gives them in different places. Marks after values point to notes of the source that are not given here.

Legend:
[1] = Peroxyl radical-scavenging activity, ESR (AAPH)
Procedure: Stock solutions, prepared by dissolving NK-4, NK-19, NK-53, NK-100, and NK-557 in DMSO, were respectively diluted with 0.1 M phosphate buffer to give concentrations of […] higher than those in Table 15 and used as test sample solutions. To 50 μl of 0.1 M phosphate buffer (pH 7.4), 50 μl of 180 mM DMPO ([…]) commercialized by Dojindo Laboratories, Kumamoto, Japan, 50 μl of any one of the test sample solutions, and 50 μl of 100 mM AAPH, commercialized by Wako Pure Chemical Industries, Osaka, Japan, were added, mixed for 10 seconds using a vortex mixer and allowed to react in an incubator controlled at 37° for two minutes and 50 seconds. After 30 seconds from completion of the reaction, the resulting reaction mixture was subjected to ESR measurement.
The reaction mixture for measuring hydroxyl or peroxyl radicals was poured into a flat quartz cell for ESR, set to “FREE RADICAL MONITOR JES-FR30”, an ESR apparatus commercialized by JOEL Ltd., Tokyo, Japan, and ESR was measured according to manual manner. The residual ratio of peroxyl radical (%) was determined as a relative value by defining the ESR value, obtained by using 0.1 M phosphate buffer as a substitute of the test sample solution, as 100. The results are in Tables 14 and 15. […] Therefore, the IC50 of edaravone was determined by another test using its higher concentration, and the result is also shown in Table 14. The conditions of the ESR measurement were set as follows: […]

brain ischemia rat = assay: Brain ischemia (cerebral infarction model) rat: size/volume of cerebral infarction region (TTC); assay type: in vivo; conditions: for increment of the volume of cerebral infarction region (in words): Experiment 13, cerebral-infarction-model rat, administered through caudal vein; for Size of cerebral infarcttion region (%): brain ischemia rats, 100 p g/kg body weight via caudal vein twice, relative to control group 1 = 100%; for Volume of cerebral infarction region (mm^3): embolus rat, caudal vein
[2] = biological target: T1, acetylcholine esterase (AchE) (Rattus norvegicus, UniProt P37136); assay: biochemical; assay type: biochemical; conditions: for action of inhibiting AchE activity (in words): Experiment 14, comparison of NK-4 analogues and NK-150
T1 sequence (P37136 32-614): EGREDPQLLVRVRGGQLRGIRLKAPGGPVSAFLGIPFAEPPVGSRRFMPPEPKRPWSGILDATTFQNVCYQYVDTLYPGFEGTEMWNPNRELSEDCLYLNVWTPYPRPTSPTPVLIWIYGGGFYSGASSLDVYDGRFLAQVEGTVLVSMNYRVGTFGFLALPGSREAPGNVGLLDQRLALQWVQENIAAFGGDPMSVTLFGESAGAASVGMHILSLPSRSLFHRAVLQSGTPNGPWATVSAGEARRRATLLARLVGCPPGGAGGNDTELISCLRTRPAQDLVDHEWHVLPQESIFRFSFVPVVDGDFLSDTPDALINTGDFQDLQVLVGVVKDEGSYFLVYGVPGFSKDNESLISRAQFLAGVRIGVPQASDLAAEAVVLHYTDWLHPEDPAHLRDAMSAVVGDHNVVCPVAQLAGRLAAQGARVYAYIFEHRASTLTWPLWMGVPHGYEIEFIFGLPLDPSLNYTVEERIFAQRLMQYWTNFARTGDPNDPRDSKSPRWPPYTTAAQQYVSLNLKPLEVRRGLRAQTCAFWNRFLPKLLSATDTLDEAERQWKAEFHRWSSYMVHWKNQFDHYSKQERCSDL

[3] = tested on: primary neuron (neuron, astrocyte and microglia) prepared from brain cortex of a rat fetus; assay: Hydrogen peroxide disorder in primary neuron; assay type: cell-based; conditions: concrete data not shown
Text: Though concrete data is not shown, using primary neuron (neuron, astrocyte and microglia) prepared from brain cortex of a rat fetus in place of PC12-HS cells, the influence of NK-4, NK-26, NK-234, NK-19 and NK-150 on amyloid β fragment disorder and hydrogen peroxide disorder was investigated.

[4] = compound concentration 25 μg/ml
[5] = compound concentration 50 μg/ml
[6] = concentration of compound 0.78 μg/ml
[7] = concentration of compound 1.56 μg/ml
[8] = concentration of compound 3.13 μg/ml
[9] = concentration of compound 6.25 μg/ml
[10] = concentration of compound 12.5 μg/ml
[11] = concentration of compound 25 μg/ml
[12] = concentration of compound 50 μg/ml
[13] = concentration that suppresses AchE activity by 50%, calculated from residual ratios
[14] = compound concentration 0.78 μg/ml, read-out: Residual ratio of AchE activity (%)
[15] = compound concentration 1.56 μg/ml, read-out: Residual ratio of AchE activity (%)
[16] = compound concentration 3.13 μg/ml, read-out: Residual ratio of AchE activity (%)
[17] = compound concentration 6.25 μg/ml, read-out: Residual ratio of AchE activity (%)
[18] = compound concentration 12.5 μg/ml, read-out: Residual ratio of AchE activity (%)
[19] = compound concentration 25 μg/ml, read-out: Residual ratio of AchE activity (%)

SMILES	IC50 (μg/ml) of peroxyl radical-scavenging activity [1]	Residual ratio of peroxyl radical (%) ([1]; compound concentration 5 μg/ml)	Residual ratio of peroxyl radical (%) [1, 4] [%]	Residual ratio of peroxyl radical (%) [1, 5] [%]	increment of the volume of cerebral infarction region (in words) (brain ischemia rat)	Size of cerebral infarcttion region (%) (brain ischemia rat)	Volume of cerebral infarction region (mm^3) (brain ischemia rat; dose 100 μg per kg body weight)	action of inhibiting AchE activity (in words) [2]	Residual ratio of AchE activity (%) [2, 6] [%]	Residual ratio of AchE activity (%) [2, 7] [%]	Residual ratio of AchE activity (%) [2, 8] [%]	Residual ratio of AchE activity (%) [2, 9] [%]	Residual ratio of AchE activity (%) [2, 10] [%]	Residual ratio of AchE activity (%) [2, 11] [%]	Residual ratio of AchE activity (%) [2, 12] [%]	IC50 [2, 13] [µg/mL]	suppressing hydrogen peroxide disorder [3]	remaining activity at 0.78 µg/mL [2, 14] [%]	remaining activity at 1.56 µg/mL [2, 15] [%]	remaining activity at 3.13 µg/mL [2, 16] [%]	also measured
CCN1C=CC(=CC=C(C=Cc2cc[n+](CC)c3ccccc23)c2cc[n+](CC)c3ccccc23)c2ccccc21.[I-].[I-] [NK-4]	4.7 µg/mL	46 ± 9	17 ± 1	16 ± 0	significantly suppressed	49.4 ± 5.1	88 ± 18** mm^3	strongly inhibited AchE activity	91 ± 4	47 ± 4	41 ± 9	38 ± 7	24 ± 2	25 ± 3	22 ± 2	1.5	actions of suppressing	–	–	–	Volume of cerebral infarction region (mm^3) (brain ischemia rat; dose 25 μg per kg body weight): 186 ± 21 mm^3; Volume of cerebral infarction region (mm^3) (brain ischemia rat; dose 50 μg per kg body weight): 107 ± 21* mm^3; Volume of cerebral infarction region (mm^3) (brain ischemia rat; dose 200 μg per kg body weight): 143 ± 26 mm^3; Volume of cerebral infarction region (mm^3) (brain ischemia rat; dose 300 μg per kg body weight): 176 ± 31 mm^3; IC50 (concentration of a compound inhibiting the AchE activity of 50%) ([2]; AchE solution from PC12-HS cells): 3.3 µg/mL; Residual ratio of AchE activity (%) ([2]; compound concentration 0.78 μg/ml): 84 ± 6%; Residual ratio of AchE activity (%) ([2]; compound concentration 1.56 μg/ml): 66 ± 7%; Residual ratio of AchE activity (%) ([2]; compound concentration 3.13 μg/ml): 42 ± 4 %; Residual ratio of AchE activity (%) ([2]; compound concentration 6.25 μg/ml): 37 ± 10 %; Residual ratio of AchE activity (%) ([2]; compound concentration 12.5 μg/ml): 38 ± 2 %; Residual ratio of AchE activity (%) [2, 4]: 30 ± 8 %
CCCN1C=CC(=CC=C(C=Cc2cc[n+](CCC)c3ccccc23)c2cc[n+](CCC)c3ccccc23)c2ccccc21.[I-].[I-] [NK-234]	–	–	–	–	–	–	–	strongly inhibited AchE activity	77 ± 21	77 ± 13	47 ± 11	45 ± 9	30 ± 12	26 ± 6	12 ± 6	3.0	actions of suppressing	–	–	–	–
CC[n+]1ccccc1/C=C/c1ccc(N(C)C)cc1 [NK-557]	50< μg/ml	90 ± 9	58 ± 5	66 ± 8	–	61.1 ± 14.2	–	–	–	–	–	–	–	–	–	–	–	110 ± 1	107 ± 2	97 ± 5	remaining activity at 6.25 µg/mL [2, 17]: 97 ± 3%; remaining activity at 12.5 µg/mL [2, 18]: 97 ± 4%; remaining activity at 25 µg/mL [2, 19]: 88 ± 9%
CCCCN1C=C/C(=C/C=C(/C=C/c2cc[n+](CCCC)c3ccccc23)c2cc[n+](CCCC)c3ccccc23)c2ccccc21 [NK-26]	–	–	–	–	significantly suppressed	–	169 ± 23 mm^3	–	–	–	–	–	–	–	–	–	actions of suppressing	–	–	–	Volume of cerebral infarction region (mm^3) (brain ischemia rat; dose 1 μg per kg body weight): 194 ± 22 mm^3; Volume of cerebral infarction region (mm^3) (brain ischemia rat; dose 10 μg per kg body weight): 121 ± 22* mm^3; remaining activity at 0.78 µg/mL ([2]; concentration of compound 0.78 μg/ml, read-out: Residual ratio of AchE activity (%)): 94 ± 11%; remaining activity at 1.56 µg/mL ([2]; concentration of compound 1.56 μg/ml, read-out: Residual ratio of AchE activity (%)): 84 ± 9%; remaining activity at 3.13 µg/mL ([2]; concentration of compound 3.13 μg/ml, read-out: Residual ratio of AchE activity (%)): 88 ± 8%; remaining activity at 6.25 µg/mL ([2]; concentration of compound 6.25 μg/ml, read-out: Residual ratio of AchE activity (%)): 88 ± 7%; remaining activity at 12.5 µg/mL ([2]; concentration of compound 12.5 μg/ml, read-out: Residual ratio of AchE activity (%)): 69 ± 5%; remaining activity at 25 µg/mL ([2]; concentration of compound 25 μg/ml, read-out: Residual ratio of AchE activity (%)): 48 ± 4%; remaining activity at 50 µg/mL ([2]; concentration of compound 50 μg/ml, read-out: Residual ratio of AchE activity (%)): 36 ± 9%; IC50 ([2]; concentration that suppresses AchE activity by 50%, calculated from residual ratios, read-out: IC50 (μg/ml) (converted)): 37.6 µM
CCN1/C(=C/C=C(/C=C/c2sc3ccccc3[n+]2CC)c2sc3ccccc3[n+]2CC)Sc2ccccc21.[I-].[I-] [NK-100]	50< μg/ml	86 ± 15	86 ± 15	76 ± 7	–	74.5 ± 11.4	–	–	–	–	–	–	–	–	–	–	–	77 ± 18	68 ± 16	67 ± 3	IC50 ([2]; AchE solution from PC12-HS cells, read-out: IC50 (concentration of a compound inhibiting the AchE activity of 50%) (converted)): 14.6 µM; remaining activity at 6.25 µg/mL [2, 17]: 60 ± 3%; remaining activity at 12.5 µg/mL [2, 18]: 49 ± 5%; remaining activity at 25 µg/mL [2, 19]: 43 ± 3%
